The source of these data is US10413583B2, “Synthetic substrates for enzymes that catalyze reactions of modified cysteines and related methods” (The University of Chicago, priority 2016, dated 2019).

Holding throughout (type): cell-based, human
Assay [1] relates to HEK293T cells. The assay can be described thus: Epifluorescent imaging of DPP-5 (and DPP-1, DPP-4) in HEK293T cells. The method, then: 250,000 HEK293T cells/well, 120,000 HeLa cells/well, or 100,000 HepG2 cells/well were plated in 700 μL DMEM glutamax (10% FBS+1% P/S) into 4-well chambered imaging dish (D35C4-20-1.5-N, Cellvis, Mountain View, Calif., United States of America), which were precoated with 5 μg Poly-D-lysine (30-70 KDa, Alfa Aesar, Haverhill, Mass., United States of America) for 2 h. After 20-24 h, the media was replaced by 1 μM Hoechst 33342 and DMSO/5 μM PalmB in 400 μL DMEM glutamax. After 30 min of incubation at 37° C., the cells were washed with 400 μL of Live Cell Imaging Solution and replaced by 1 μM DPP-5 with DMSO or 5 μM of PalmB in Live Cell Imaging Solution. […] For data analysis, the average fluorescence intensity per image in each experimental condition was obtained by selecting ROI in Brightfield and applying that to the corresponding DPP-5 image, average background fluorescence intensity was subtracted and data was normalized to the average fluorescence intensity of the DMSO control. […]

Assay [2] deals with HeLa cells. The assay can be described thus: Flow cytometry of DPP-3 in HeLa cells. Particulars: 1 μM inhibitor, 5 μM DPP-3, 5 min. Here is the method: (§1) Cells were plated on a 10 cm dish with 10 mL of DMEM/High Glucose (10% FBS, 1% P/S, L-Glutamine, Sodium pyruvate) 36-48 hours prior to the day of experiment and maintained at 37° C., 5% CO2 so as to obtain 80-90% confluency. Cells were washed with DPBS and trypsinized with 1 mL 0.05% Trypsin. 5 mL of DMEM/High Glucose (10% FBS, L-Glutamine, Sodium pyruvate) was added and cells were spun down at 1200 rpm for 3 min. Media was discarded and cells were resuspended in 5 mL of Live Cell Imaging Solution and again spun down at 1200 rpm for 3 min. The cells pellets obtained were resuspended in 3-5 mL of Live Cell Imaging Solution and divided into 500 μL aliquots. The aliquots were treated with either 0.2% DMSO carrier or 1 μM of PalmB/ML348 or 1 μM/5 μM of ML349 inhibitor. After 30 min of incubation at room temperature, 1 μL of 2.5 mM DPP-3 in DMSO was added to each aliquot for a final concentration of 5 μM, and the solutions were mixed. After 5 min incubation at room temperature, fluorescence signal in FITC channel was measured for 10000 cells (5000 for HeLa experiments) on a LSR-Fortessa 4-15 HTS (BD digital instrument, 488 nm laser with 530/30 nm filter for FITC; BD, Franklin Lakes, N.J., United States of America). For analyzing DPP2 in HEK293T cells, the aliquots were treated with either 0.2% DMSO carrier or 2 μM of PalmB, 5 or 20 μM of ML348/ML349 and then analyzed by the protocol as mentioned above. Data was analyzed by FlowJo software version 10.0.8. For comparison of A431 starved versus non-starved, parallel 10 cm dishes of A431 cells were plated in 10 mL of DMEM (high glucose, 10% FBS, 1% P/S), and grown for 36 h. The growth media was removed, and replaced by 10 mL of either DMEM (High glucose) with 10% FBS to maintain “growth” conditions, or DMEM (High glucose) without FBS respectively for “starvation” conditions, and incubated for 14 h. After trypsinization, both plates were treated with 5 mL of DMEM (high glucose) for spinning the cells down, and further processing and analysis were performed as described above by flow cytometry.

Assay [3] has as its system MCF-7 cells. The assay can be described thus: Flow cytometry of DPP-3 in MCF-7 cells. The following applies: 1 μM inhibitor, 5 μM DPP-3, 5 min. The method, then: as §1
In general terms: Flow cytometry measures light scatter and fluorescence of single cells or particles in a stream.

Assay [4] relates to MDA-MB-231 cells. The assay can be described thus: Flow cytometry of DPP-3 in MDA-MB-231 cells. The following applies: MDA-MF-231 as printed; 1 μM inhibitor; 5 μM DPP-3, 5 min. The method, then:
as §1

Entries after “also recorded” stand apart in the source; their conditions may differ.

With `CCCCCCCCCCCCCCCC(=O)SC[C@@H](C(=O)NC)N(C)C(=O)Oc1ccc2c(c1)Oc1cc(N3CCN(C(=O)CCC(=O)O)CC3)ccc1C21OC(=O)c2ccccc21` (some centres unmarked) [DPP-5], the “probe fluorescent signal in cells” value in assay [1] (1 μM probe for 20 minutes) was “bright, intracellular fluorescent signal; also recorded: robust fluorescent signal”.

Consider `CCCCCCCCCC[C@@H]1C(=O)O[C@H]1CCc1ccc(OC)c(OC)c1` [PalmB, palmostatin B], for which the “effect of inhibitor on depalmitoylation signal measured by DPP-3” value in assay [2], in assay [3] and in assay [4] was “knocks down the depalmitoylation signal” throughout. In addition, the “fluorescent signal of DPP-5 abolished” value in assay [1] (5 μM PalmB pretreatment, 1 μM DPP-5) is “about 95%”.

In the case of `O=C(CN1CCN(C(=O)c2ccco2)CC1)Nc1cc(C(F)(F)F)ccc1Cl` [ML348], the “effect of inhibitor on depalmitoylation signal measured by DPP-3” value in assay [2], in assay [3] and in assay [4] was “knocks down the depalmitoylation signal” throughout.
